Results: patent US10604554B2, “Double-acylated GLP-1 derivatives” (Novo Nordisk A/S, priority 2012, dated 2020)

How the values were obtained:
human GLP-1 receptor [1] = biological target: T1, human GLP-1 receptor (Homo sapiens, UniProt P43220); test: In vitro potency (CRE luciferase; whole cells); type: cell-based; set-up: EC50/pM (ratio 1% HSA/0% HSA): unit not given here; settings: for EC50: BHK cells
T1 construct: expressed in transfected cells; host or cells: BHK cells, clone FCW467-12A/KZ10-1 (parent line BHKTS13), further transfected with CRE luciferase
Procedure: The purpose of this example is to test the activity, or potency, of the GLP-1 derivatives in vitro. The in vitro potency is the measure of human GLP-1 receptor activation in a whole cell assay.
In vitro potency was determined by measuring the response of human GLP-1 receptor in a reporter gene assay. The assay was performed in a stably transfected BHK cell line that expresses the human GLP-1 receptor and contains the DNA for the cAMP response element (CRE) coupled to a promoter and the gene for firefly luciferase (CRE luciferase). When the human GLP-1 receptor was activated it results in the production of cAMP, which in turn results in the luciferase protein being expressed. When assay incubation was completed the luciferase substrate (luciferin) was added and the enzyme converts luciferin to oxyluciferin and produces bioluminescence. The luminescence was measured and was the readout for the assay.
An increase of the in vitro potency, EC50 value, in the presence of serum albumin indicates an affinity to serum albumin and represents a method to predict a protracted pharmacokinetic profile of the test substance in animal models.
The cells were cultured at 5% CO2 in cell culture medium. They were aliquoted and stored in liquid nitrogen. Before each assay an aliquot was taken up and washed twice in PBS before being suspended at the desired concentration in the assay specific buffer.
The following chemicals were used in the assay: Pluronic F-68 (10%) (Gibco 2404), human serum albumin (HSA) (Sigma A9511), ovalbumin (Sigma A5503), DMEM w/o phenol red (Gibco 11880-028), 1 M Hepes (Gibco 15630), Glutamax 100× (Gibco 35050) and steadylite plus (PerkinElmer 6016757).
1) Cell stocks were thawed in a 37° C. water bath.
2) Cells were washed three times in PBS.
3) The cells were counted and adjusted to 5×10^3 cells/50 μl (1×10^5 cells/ml) in assay medium. A 50 μl aliquot of cells was transferred to each well in the assay plate.
4) Stocks of the test compounds and reference compounds were diluted to a concentration of 0.2 μM in 0% assay buffer for the 0% HSA CRE luciferase assay and 1% assay buffer for the HSA CRE luciferase assay. […] 5) A 50 μl aliquot of compound or blank was transferred in triplicate from the dilution plate to the assay plate. […] 7) The assay plate was removed from the incubator and allowed to stand at room temperature for 15 min. 8) A 100 μl aliquot of steadylite plus reagent was added to each well of the assay plate (reagent was light sensitive). 9) Each assay plate was covered with aluminum foil to protect it from light and shaken for 30 min at room temperature. 10) Each assay plate was read in a Packard TopCount NXT instrument. Calculations and Results
The data from the TopCount instrument were transferred to GraphPad Prism software. The software averages the values for each replicate and performs a non-linear regression.

human GLP-1 receptor [2] = biological target: T1, human GLP-1 receptor; test: GLP-1 receptor binding (SPA, displacement of 125I-GLP-1)
Procedure: The purpose of this experiment is to investigate the binding to the GLP-1 receptor of the GLP-1 derivatives, and how the binding is potentially influenced by the presence of albumin. This is done in an in vitro experiment as described below.
In order to test the binding of the derivatives to albumin, the assay was performed with a low concentration of albumin (0.001%—corresponding to the residual amount thereof in the tracer), as well as with a high concentration of albumin (2.0% added). A shift in the binding affinity, IC50, is an indication that the peptide in question binds to albumin, and thereby a prediction of a potential protracted pharmacokinetic profile of the peptide in question in animal models.
Species (in vitro): Hamster
Biological End Point: Receptor Binding
A stable transfected cell line and a high expressing clone were selected for screening. The cells were grown at 5% CO2 in DMEM, 10% FCS, 1% Pen/Strep (Penicillin/Streptomycin) and 1.0 mg/ml of the selection marker G418.
The cells (approx. 80% confluence) were washed twice in PBS and harvested with Versene (aqueous solution of the tetrasodium salt of ethylenediaminetetraacetic acid), following which they were separated by centrifugation at 1000 rpm for 5 min. The cells/cell pellet must be kept on ice to the extent possible in the subsequent steps. The cell pellet was homogenised with Ultrathurrax for 20-30 seconds in a suitable amount of Buffer 1 (depending on the amount of cells, but e.g. 10 ml). The homogenate was centrifuged at 20000 rpm for 15 minutes. The pellet was resuspended (homogenised) in 10 ml Buffer 2 and re-centrifuged. This step was repeated once more. The resulting pellet was resuspended in Buffer 2, and the protein concentration was determined. The membranes were stored at minus 80° C.
Buffer 1:20 mM Na-HEPES+10 mM EDTA, pH 7.4
Buffer 2:20 mM Na-HEPES+0.1 mM EDTA, pH 7.4
Test compounds, membranes, SPA-particles and [^125I]-GLP-1(7-36)NH2 were diluted in assay buffer. 50 ul (micro liter) HSA (“high albumin” experiment containing 2% HSA), or buffer (“low albumin” experiment containing 0.001% HSA) was added to Optiplate, and 25 ul of test compounds were added. 5-10 ug membrane protein/sample was added (50 ul) corresponding to 0.1-0.2 mg protein/ml (to be preferably optimised for each membrane preparation). SPA-particles (Wheatgerm agglutinin SPA beads, Perkin Elmer, # RPNQ0001) were added in an amount of 0.5 mg/well (50 ul). The incubation was started with [^125I]-GLP-1]-(7-36)NH2 (final concentration 0.06 nM corresponding to 49.880 DPM, 25 ul). The plates were sealed with PlateSealer and incubated for 120 minutes at 30° C. while shaking. The plates were centrifuged (1500 rpm, 10 min) and counted in Topcounter.

[3] = In vitro potency (CRE luciferase) EC50 (0% HSA), 0% HSA
[4] = In vitro potency (CRE luciferase) EC50 (1% HSA), 1% HSA
[5] = Receptor binding affinity IC50 (high HSA), 2.0% HSA (high albumin)
[6] = Receptor binding affinity IC50 (low HSA), 0.001% HSA (low albumin)

T1 sequence (P43220 24-463): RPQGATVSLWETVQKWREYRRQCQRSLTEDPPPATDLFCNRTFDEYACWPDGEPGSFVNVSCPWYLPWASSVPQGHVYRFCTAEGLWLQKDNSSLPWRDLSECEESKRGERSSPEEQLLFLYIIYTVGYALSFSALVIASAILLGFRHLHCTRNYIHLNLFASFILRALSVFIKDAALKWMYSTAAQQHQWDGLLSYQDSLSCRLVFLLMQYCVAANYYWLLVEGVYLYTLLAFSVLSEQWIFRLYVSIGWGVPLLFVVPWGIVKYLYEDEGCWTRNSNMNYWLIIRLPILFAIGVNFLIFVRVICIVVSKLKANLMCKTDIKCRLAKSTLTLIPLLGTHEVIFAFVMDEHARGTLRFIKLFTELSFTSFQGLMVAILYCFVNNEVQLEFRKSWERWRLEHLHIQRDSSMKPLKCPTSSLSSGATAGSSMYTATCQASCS

Structure (SMILES) | EC50 (human GLP-1 receptor [1]; [3]) [nM] | EC50 (human GLP-1 receptor [1]; [4]) [nM] | IC50 (human GLP-1 receptor [2]; [5]) [nM] | EC50/pM (ratio 1% HSA/0% HSA) (human GLP-1 receptor [1]; ratio of EC50 at 1% HSA to EC50 at 0% HSA) | IC50 (human GLP-1 receptor [2]; [6]) [nM]
CC[C@H](C)[C@H](NC(=O)[C@H](Cc1ccccc1)NC(=O)[C@H](CCC(=O)O)NC(=O)[C@H](CCCCNC(=O)[C@@H](N)CCCCNC(=O)[C@@H](N)CCCCNC(=O)CC[C@H](NC(=O)CC[C@H](NC(=O)CCCCCCCCCCOc1ccc(C(=O)O)cc1)C(=O)O)C(=O)O)NC(=O)[C@H](C)NC(=O)[C@H](C)NC(=O)[C@H](CCC(N)=O)NC(=O)CNC(=O)[C@H](CCC(=O)O)NC(=O)[C@H](CC(C)C)NC(=O)[C@H](Cc1ccc(O)cc1)NC(=O)[C@H](CO)NC(=O)[C@H](CO)NC(=O)[C@@H](NC(=O)[C@H](CC(=O)O)NC(=O)[C@H](CO)NC(=O)[C@@H](NC(=O)[C@H](Cc1ccccc1)NC(=O)[C@@H](NC(=O)CNC(=O)[C@H](CCC(=O)O)NC(=O)C(C)(C)NC(=O)[C@@H](N)Cc1c[nH]cn1)[C@@H](C)O)[C@@H](C)O)C(C)C)C(=O)N[C@@H](C)C(=O)N[C@@H](Cc1c[nH]c2ccccc12)C(=O)N[C@@H](CC(C)C)C(=O)N[C@H](C(=O)N[C@@H](CCCNC(=N)N)C(=O)NCC(=O)N[C@@H](CCCNC(=N)N)C(=O)N[C@@H](CCCCNC(=O)[C@@H](N)CCCCNC(=O)[C@@H](N)CCCCNC(=O)CC[C@H](NC(=O)CC[C@H](NC(=O)CCCCCCCCCCOc1ccc(C(=O)O)cc1)C(=O)O)C(=O)O)C(=O)O)C(C)C [Example 38, N^ε26-[(2S)-2-amino-6-[[(2S)-2-amino-6-[[(4S)-4-carboxy-4-[[(4S)-4-carboxy-4-[11-(4-carboxyphenoxy)undecanoylamino]butanoyl]amino]butanoyl]amino]hexanoyl]amino]hexanoyl], N^ε37-[(2S)-2-amino-6-[[(2S)-2-amino-6-[[(4S)-4-carboxy-4-[[(4S)-4-carboxy-4-[11-(4-carboxyphenoxy)undecanoylamino]butanoyl]amino]butanoyl]amino]hexanoyl]amino]hexanoyl]-[Aib^8,Arg^34,Lys^37]-GLP-1-(7-37)-peptide] | 0.0076 | 0.189 | 53 | – | –
CC[C@H](C)[C@H](NC(=O)[C@H](Cc1ccccc1)NC(=O)[C@H](CCC(=O)O)NC(=O)[C@H](CCCCNC(=O)[C@@H](N)CCCCNC(=O)CC[C@H](NC(=O)CC[C@H](NC(=O)CC[C@H](NC(=O)CCCCCCCCCCOc1ccc(C(=O)O)cc1)C(=O)O)C(=O)O)C(=O)O)NC(=O)[C@H](C)NC(=O)[C@H](C)NC(=O)[C@H](CCC(N)=O)NC(=O)CNC(=O)[C@H](CCC(=O)O)NC(=O)[C@H](CC(C)C)NC(=O)[C@H](Cc1ccc(O)cc1)NC(=O)[C@H](CO)NC(=O)[C@H](CO)NC(=O)[C@@H](NC(=O)[C@H](CC(=O)O)NC(=O)[C@H](CO)NC(=O)[C@@H](NC(=O)[C@H](Cc1ccccc1)NC(=O)[C@@H](NC(=O)CNC(=O)[C@H](CCC(=O)O)NC(=O)C(C)(C)NC(=O)[C@@H](N)Cc1c[nH]cn1)[C@@H](C)O)[C@@H](C)O)C(C)C)C(=O)N[C@@H](C)C(=O)N[C@@H](Cc1c[nH]c2ccccc12)C(=O)N[C@@H](CC(C)C)C(=O)N[C@H](C(=O)N[C@@H](CCCNC(=N)N)C(=O)NCC(=O)N[C@@H](CCCNC(=N)N)C(=O)N[C@@H](CCCCNC(=O)[C@@H](N)CCCCNC(=O)CC[C@H](NC(=O)CC[C@H](NC(=O)CC[C@H](NC(=O)CCCCCCCCCCOc1ccc(C(=O)O)cc1)C(=O)O)C(=O)O)C(=O)O)C(=O)O)C(C)C [Example 39, N^ε26-[(2S)-2-amino-6-[[(4S)-4-carboxy-4-[[(4S)-4-carboxy-4-[[(4S)-4-carboxy-4-[11-(4-carboxyphenoxy)undecanoylamino]butanoyl]amino]butanoyl]amino]butanoyl]amino]hexanoyl], N^ε37-[(2S)-2-amino-6-[[(4S)-4-carboxy-4-[[(4S)-4-carboxy-4-[[(4S)-4-carboxy-4-[11-(4-carboxyphenoxy)undecanoylamino]butanoyl]amino]butanoyl]amino]butanoyl]amino]hexanoyl]-[Aib^8,Arg^34,Lys^37]-GLP-1-(7-37)-peptide] | 0.0037 | 0.14 | 131 | 38 | 0.06
CC[C@H](C)[C@H](NC(=O)[C@H](Cc1ccccc1)NC(=O)[C@H](CCC(=O)O)NC(=O)[C@H](CCCCNC(=O)[C@@H](N)CCCCNC(=O)CC[C@H](NC(=O)CC[C@H](NC(=O)CC[C@H](NC(=O)CCCCCCCCCOc1ccc(C(=O)O)cc1)C(=O)O)C(=O)O)C(=O)O)NC(=O)[C@H](C)NC(=O)[C@H](C)NC(=O)[C@H](CCC(N)=O)NC(=O)CNC(=O)[C@H](CCC(=O)O)NC(=O)[C@H](CC(C)C)NC(=O)[C@H](Cc1ccc(O)cc1)NC(=O)[C@H](CO)NC(=O)[C@H](CO)NC(=O)[C@@H](NC(=O)[C@H](CC(=O)O)NC(=O)[C@H](CO)NC(=O)[C@@H](NC(=O)[C@H](Cc1ccccc1)NC(=O)[C@@H](NC(=O)CNC(=O)[C@H](CCC(=O)O)NC(=O)C(C)(C)NC(=O)[C@@H](N)Cc1c[nH]cn1)[C@@H](C)O)[C@@H](C)O)C(C)C)C(=O)N[C@@H](C)C(=O)N[C@@H](Cc1c[nH]c2ccccc12)C(=O)N[C@@H](CC(C)C)C(=O)N[C@H](C(=O)N[C@@H](CCCNC(=N)N)C(=O)NCC(=O)N[C@@H](CCCNC(=N)N)C(=O)N[C@@H](CCCCNC(=O)[C@@H](N)CCCCNC(=O)CC[C@H](NC(=O)CC[C@H](NC(=O)CC[C@H](NC(=O)CCCCCCCCCOc1ccc(C(=O)O)cc1)C(=O)O)C(=O)O)C(=O)O)C(=O)O)C(C)C [Example 8, N^ε26-[(2S)-2-amino-6-[[(4S)-4-carboxy-4-[[(4S)-4-carboxy-4-[[(4S)-4-carboxy-4-[10-(4-carboxyphenoxy)decanoylamino]butanoyl]amino]butanoyl]amino]butanoyl]amino]hexanoyl], N^ε37-[(2S)-2-amino-6-[[(4S)-4-carboxy-4-[[(4S)-4-carboxy-4-[[(4S)-4-carboxy-4-[10-(4-carboxyphenoxy)decanoylamino]butanoyl]amino]butanoyl]amino]butanoyl]amino]hexanoyl]-[Aib^8,Arg^34,Lys^37]-GLP-1-(7-37)-peptide] | 0.0026 | 0.045 | 269 | – | 0.68
